Data set [1] can be described thus: Homogeneity of cured silicone elastomer incorporating the cyclodextrin. The class given is physicochemical. Conditions: hydrosilylation-cured PDMS elastomer, procedure analogous to CH95-70. An excerpt:
0.802 g (0.304 mmol) CH70, dimethylvinylsilyl-β-cyclodextrin, and 52.0 g of a silicon hydride terminated polydimethylsiloxane fluid with a viscosity of approx. 1000 mPa·s, are placed in a suitable plastic cup with a lid along with a magnetic stir bar. The cup is blanketed with nitrogen gas and then closed to maintain an inert atmosphere while stirring. The materials are stirred until the cyclodextrin is fully dissolved. To this solution, 22.9 g of a vinyl terminated polydimethylsiloxane fluid with a viscosity of approx. 100,000 mPa·s, are added and the contents of the plastic cup are hand-mixed with a stirring rod. 0.0757 g of a platinum catalyst solution, divinyl tetramethyl disiloxane platinum complex diluted in vinyl terminated polysiloxane (1% w/w Pt content), are added to the mixture and hand-mixed, followed by further mixing in a FlackTek, Inc. Speedmixer™, model DAC 1100.2 VAC, at 1250 rpm for 1 minute under vacuum (95 mbar pressure, to degas the mixture).
The composition is then placed into a “plate and frame” mold lined with a suitable release liner. The composition and mold are put into an oven preheated at 80° C. for 1 h to cure into a rubber slab produced are approximately 6 in X 6 in X 0.072 in. The cured elastomer specimen is clear and colorless. […]

Data set [2] can be described thus: Solubility of silylated cyclodextrins in silicone fluid BELSIL DM 5. As for the experimental part: Such a homogneous mixture can also be formed by using a magnetic stirrer, overhead stirrer, Speedmixer™ or similar mixing techniques.
Above experiment was repeated with a native γ-CD CAVAMAX® W8, which was not modified with silylation.
Silylated β-cyclodextrin CH77 with low number of silyl groups (7.95 TMS and 3.23 VDMS groups on average) was evaluated to check the solubility in DM 5 at 10 wt. %.

The nature of data set [3]: Release of geraniol from cured elastomer, weight loss in oven at 60° C. The class given is physicochemical. The procedure: A cured elastomer/CD/geraniol sample (VP141-2-1) containing 10:1 mole ratio of geraniol to CD was prepared by using the following procedure: Trimethylsilyl-β-cyclodextrin CH62 (1.41 g, 0.59 mmol) and geraniol (0.90 g, 5.9 mmol) were added to a plastic cup and mixed using a Speedmixer™ for 2 min at 2000 rpm (mixing was repeated 2-3 times). The mixture appeared almost homogeneous. SiH terminated linear silicone of approximate formula MHD220MH and approximate viscosity 1000 mPa·s (13.95 g), SiH terminated and pendant SiH containing silicone of approximate formula MHD95.5DH9.6MH and having an approximate viscosity of 165 mPa·s (0.71 g), vinyl terminated linear silicone of approximate viscosity 1000 mPa·s (22.31 g) and platinum catalyst solution (0.078 g) were added to the cup and mixed using Speedmixer™ for 2 min at 2000 rpm (x 3-4 times). The resulted clear and colorless mixture was left in the tightly closed cup for 24-36 h to cure at room temperature to get a cured elastomer sample.
Then, vinyl terminated linear silicone of approximate viscosity 1000 mPa·s(23.09 g) and platinum catalyst solution (0.075 g) were added to the cup and mixed using Speedmixer™ for 2 min at 2000 rpm (mixing was repeated 2-3 times). The resultant clear, colorless mixture was left in the tightly closed cup for 24-36 h to cure at room temperature to get a cured elastomer sample. […]

Data set [4] in a line: Thermogravimetric analysis (TGA) of evaporation of active, pure versus silyl-CD complex. The class given is physicochemical. An excerpt: Complex formation provides advantage for practical use of these guest molecules, many of which are pharmaceutical or cosmetic actives. For example, complexation slows down the evaporation of actives making the actives last longer. This is confirmed by Thermogravimetric analysis (TGA). Thermogravimetric analysis results for pure geraniol and its 1:1 complex with trimethylsilyl-β-cyclodextrin CH62 are shown in FIG. 4.
The complex with TMS-β-CD CH62 contains approximately 6 wt. % Geraniol. […] Thus, complexation with silyl-CD slows down loss of geraniol.
In FIG. 5 TGA thermograms show similar observations for complexation between a silyl-CD MG 15 and alpha-pinene 1:1 compared with pure alpha-pinene.
Pure pinene completely evaporates by 140° C., but it takes up to approximately 200° C. for the pinene to completely evaporate from the complex.

Read-outs that look alike come from different tables or passages of the source. A value given as a limit tells only on which side of the number the result lay.

`OC[C@H]1O[C@@H]2O[C@H]3[C@H](O)[C@@H](O)[C@@H](O[C@H]4[C@H](O)[C@@H](O)[C@@H](O[C@H]5[C@H](O)[C@@H](O)[C@@H](O[C@H]6[C@H](O)[C@@H](O)[C@@H](O[C@H]7[C@H](O)[C@@H](O)[C@@H](O[C@H]8[C@H](O)[C@@H](O)[C@@H](O[C@H]1[C@H](O)[C@H]2O)O[C@@H]8CO)O[C@@H]7CO)O[C@@H]6CO)O[C@@H]5CO)O[C@@H]4CO)O[C@@H]3CO` [CAVAMAX® W7, β-cyclodextrin]: the “appearance of cured elastomer sample” value in data set [1] is “heterogeneous, opaque, with large domain separations”.

With `OC[C@H]1O[C@@H]2O[C@H]3[C@H](O)[C@@H](O)[C@@H](O[C@H]4[C@H](O)[C@@H](O)[C@@H](O[C@H]5[C@H](O)[C@@H](O)[C@@H](O[C@H]6[C@H](O)[C@@H](O)[C@@H](O[C@H]7[C@H](O)[C@@H](O)[C@@H](O[C@H]8[C@H](O)[C@@H](O)[C@@H](O[C@H]9[C@H](O)[C@@H](O)[C@@H](O[C@H]1[C@H](O)[C@H]2O)O[C@@H]9CO)O[C@@H]8CO)O[C@@H]7CO)O[C@@H]6CO)O[C@@H]5CO)O[C@@H]4CO)O[C@@H]3CO` [CAVAMAX® W8, γ-cyclodextrin], the “solubility in DM 5 (appearance of mixture)” value in data set [2] is “heterogeneous and opaque, with gross phase separation”.

As for `CC(C)=CCC/C(C)=C/CO` [Geraniol, geraniol], the “time to complete release of geraniol” value in data set [3] is “a few hours”. Besides, in data set [4], the “temperature at which evaporation (weight loss) starts” value was “approximately 75 °C” and the “temperature at which evaporation is complete” value was “approximately 225 °C”.

For `COC[C@H]1O[C@@H]2O[C@H]3[C@H](OC)[C@@H](OC)[C@@H](O[C@H]4[C@H](OC)[C@@H](OC)[C@@H](O[C@H]5[C@H](OC)[C@@H](OC)[C@@H](O[C@H]6[C@H](OC)[C@@H](OC)[C@@H](O[C@H]7[C@H](OC)[C@@H](OC)[C@@H](O[C@H]8[C@H](OC)[C@@H](OC)[C@@H](O[C@H]1[C@H](OC)[C@H]2OC)O[C@@H]8COC)O[C@@H]7COC)O[C@@H]6COC)O[C@@H]5COC)O[C@@H]4COC)O[C@@H]3COC` [permethylated β-cyclodextrin], in data set [1], the “appearance of cured elastomer sample” value was “heterogeneous, opaque, with large domain separations”. The “solubility in DM 5 (appearance of mixture)” value in data set [2] (10 wt. % mixture in BELSIL DM 5 (polydimethylsiloxane, 5 mPa·s), vortex mixer) is “heterogeneous and opaque”.

On to `CC1=CCC2CC1C2(C)C` (stereo not drawn) [pinene, alpha-pinene], for which, in data set [4], the “temperature at which evaporation (weight loss) starts” value is below 30 °C and the “temperature at which evaporation is complete” value is at most 140 °C.

The record behind these values is patent US20250270394A1, “CYCLODEXTRIN INCORPORATED SILICONE MATERIALS AND THEIR USE AS CARRIERS FOR ACTIVES” (WACKER CHEMIE AG, priority 2022, published 2025).
